# Ends that are not written are not given here.
# Experiments:
# [1] = test system: extracellular proteases; test: Protease activity of AIP-I detached biofilm effluent with inhibitors or activators (Azocoll); type: biochemical, Staphylococcus aureus; details: EGTA 1 mM, PMSF 10 mM (method: 200 mM), DTT 1 mM
# Description: (§1) Monitoring protease activity. Milk agar plates for detection of protease activity consisted of 3 g/L Tryptic Soy broth, 20 g/L non-fat dry milk, and 15 g/L agar. To determine relative protease activities of strains, assays were performed as described previously using the Azocoll (Calbiochem) reagent (Fournier et al., 2001). For measuring protease levels in biofilm effluents, 100 mL of effluent was collected on ice (about 12 hours) after AIP addition to the biofilm medium. Cells were removed from the effluents through centrifugation and filtering, and ammonium sulfate was added to 60% over one hour at 4° C. to concentrate proteins. The precipitated proteins were pelleted by centrifugation at 19,000 rpm for 30 min, and the pellet was washed and resuspended in 1 ml with 10 mM Tris pH 7.5. For the protease assay, the reaction mixture was supplemented with either 1 mM EGTA, 200 mM PMSF, or 1 mM DTT to gauge relative levels of protease classes.
# There are 10 known extracellular proteases produced by most S. aureus strains and expression of all these enzymes is controlled by the agr system (Novick, 2003; Dunman et al., 2001; Ziebandt et al., 2004). These 10 proteases include the metalloprotease aureolysin (aur), two cysteine proteases (scpA and sspB), and seven serine proteases (sspA (V8) and sp1ABCDEF) (Dubin, 2002). To elucidate what class(es) of proteases are prevalent in AIP-treated biofilms, the effluent from a detaching biofilm was assayed for protease activity in the presence of protease inhibitors or activating agents.
# [2] = test system: S. aureus SH1000 biofilm and detached bacteria; test: Susceptibility of biofilm and detached bacteria to rifampicin killing; type: cell-based, Staphylococcus aureus; details: six hours
# Description: Antibiotic sensitivity. S. aureus biofilms were grown for two days in a flow chamber lined with removable polycarbonate coupons (Flow Cell FC271, Biosurface Technologies, Bozeman Mont.). Biofilm effluents were collected on ice about 24 hours after AIP-I addition. In parallel, coupons with biofilm growth were removed from flow cells not exposed to AIP-I. Both detached bacteria and the biofilms were exposed to the indicated levels of rifampicin for six hours. Subsequently, cells were vortexed, and the coupons were sonicated in a water bath to break up the biofilm or cell clumps. Serial dilutions were plated on TSA to determine surviving CFU's.
# Detached S. aureus cells regain antibiotic sensitivity. Biofilm growth of S. aureus increases resistance to antimicrobials when compared to the planktonic growth mode (Fux et al., 2004; Yarwood et al., 2004). This Biofilm-mediated resistance hinders treatment of many chronic S. aureus biofilm related infections, including endocarditis, osteomyelitis, and indwelling medical device infections (Parsek and Singh, 2003; Costerton et al., 2003). Therefore, the inventors asked whether AIP-dispersed bacteria regained sensitivity to a clinically relevant antibiotic, rifampicin. To test this, the inventors collected detached cells from an AIP-treated biofilm effluent and compared resistance to intact biofilms exposed to different levels of rifampicin. […]
# [3] = test system: S. aureus SH1000 biofilm; test: Flow cell biofilm detachment (CLSM, COMSTAT biomass, effluent CFU); type: cell-based, Staphylococcus aureus; details: for biomass detached: day 2 vs day 4
# Description: (§2) Biofilm experiments. Microtiter plate biofilms were performed as described (Shanks et al., 2005) except that the plates were incubated at 37° C. with shaking at 200 rpm for 12 hours. For flow cell experiments, AIPs were generated using the DnaB intein method, and the AIP concentrations were determined as previously described (Malone et al., 2007). AIPs stocks (20 mM) were stored in 100 mM phosphate (pH 7), 50 mM NaC1, 1 mM tris(2-carboxyethyl) phosphine (TCEP) and were diluted into the biofilm flow medium to a final concentration of 50 nM. When required, […] of erythromycin and/or chloramphenicol were added to the flow cell media to maintain plasmids. The growth medium for flow cell biofilms consisted of 2% TSB plus 0.2% glucose unless otherwise indicated. Flow cell biofilm experiments and confocal microscopy were performed as previously described (Yarwood et al., 2004). Flow cells were inoculated with overnight cultures diluted 1:100 in sterile water and laminar flow ([…]) was initiated after one hour incubation. Confocal microscopy was performed using a Radiance 2100 system (Biorad) with a Nikon Eclipse E600 microscope. Confocal images were processed using Velocity software (Improvision, Lexington, Mass.). Biofilm biomass was quantified with the COMSTAT program (Heydorn et al., 2000) and percent biomass detached was calculated by subtracting biomass present at day 4 from day 2. To quantitate the number of bacteria detaching from a biofilm, 1 ml of flow cell effluent was collected on ice at indicated time points. The collected effluent was vortexed and sonicated in a water bath for 10 minutes to break up clumps, and serial dilutions were plated on TSA plates to determine colony forming units (CFUs). For the Proteinase K detachment experiments, the enzyme (Sigma-Aldrich) was suspended in water and added to the media reservoir at a final concentration of 2 mg/ml.
# AIP detaches S. aureus biofilms. To investigate the role of the agr system in established biofilms, the inventors developed strategies to modulate level of agr activity within a biofilm. Initially, media supplementation experiments were performed using purified AIP signal in order to place the agr system under external control. The inventors recently developed a new method for AIP biosynthesis (Malone et al., 2007), enabling the production of sufficient signal levels for flow cell experiments. Through exogenous AIP addition, they could test wild-type strains and avoid any potential complications of constructed agr deletion mutants. For this approach, established flow cell biofilms were prepared using S. aureus SH1000 constitutively expressing RFP with plasmid pAH9. The flow cell media was supplemented with glucose to attenuate agr expression (Regassa et al., 1992), allowing cell attachment and biofilmdevelopment. After two days, either 1 mL of buffer (100 mM phosphate [pH 7], 50 mMNaCl, 1 mMTCEP; FIG. 2A) or 1 mL of […] in buffer (FIG. 2B and Video S1) was diluted 1000-fold (50 nM final concentration) into the growth media. Using the inventors' synthesized AIP-I in dose-response curves (Malone et al., 2007), the inventors estimate the amount of AIP-I in supernatants of TSB broth cultures (OD600 1.0-1.3) reaches approximately 400 nM (data not shown), indicating the 50 nM level used for the biofilm experiments is within a relevant concentration range. […] To confirm that AIP-I caused detachment, the inventors counted viable S. aureus cells in the effluent media (FIG. 2C). […] In contrast, the number of bacteria in the biofilm effluent without AIP-I addition remained relatively constant.
# [4] = test system: extracellular proteases; test: Protease activity in biofilm effluents after AIP addition (Azocoll); type: cell-based, Staphylococcus aureus; details: for protease activity in biofilm effluent relative to biofilm without AIP: wild-type SH1000 biofilm supplemented with AIP
# Description: as §1
# If S. aureus proteases have a role in detachment, proteinase K should be able to disperse an established biofilm. […] With this preliminary observation, the inventors measured the levels of protease activity in effluents from biofilms with and without AIP-I addition using Azocoll (azo dye-impregnated collagen) reagent. […] With the addition of activating AIP-I, the protease activity increased approximately five-fold compared to a biofilm with no AIP-I treatment.
# [5] = test system: FRI1169 (agr Type I) biofilm; test: Flow cell biofilm detachment, agr-I strain; type: cell-based, Staphylococcus aureus; details: 2-day old biofilm, 50 nM cognate AIP, over 48 hours
# Description: as §2, with “Confocal microscopy was performed using a Radiance 2100 system (Biorad) with a Nikon Eclipse E600 microscope. Confocal images were processed using Velocity software (Improvision, Lexington, Mass.).” left out, “The collected effluent was vortexed and sonicated in a water bath for 10 minutes to break up clumps, and serial dilutions were plated on TSA plates to determine colony forming units (CFUs). For the Proteinase K detachment experiments, the enzyme (Sigma-Aldrich) was suspended in water and added to the media reservoir at a final concentration of 2 mg/ml.” left out
# [6] = test system: agr P3 promoter; test: agr P3-GFP reporter (pDB59) expression in flow cell biofilms; type: cell-based, Staphylococcus aureus
# Description: Strains and growth conditions. The bacterial strains and plasmids used in this study are described in Table 1. S. aureus or Escherichia coli were grown in tryptic soy broth (TSB) or on tryptic soy agar (TSA) with the appropriate antibiotics for plasmid selection or maintenance (erythromycin […]; chloramphenicol 10 μg/ml; tetracycline 5 μg/ml) and incubated at 37° C. Plasmid DNA was prepared from E. coli and transformed by electroporation into S. aureus RN4220 as described (Schenk and Laddaga, 1992). Plasmids were moved from RN4220 into other S. aureus strains by transduction with bacteriophage a80 (Novick, 1991) or by purifying the plasmid DNA and transformed by electroporation into appropriate strains. To move sspA and sp1ABCDEF mutations into appropriate genetic backgrounds, phage transduction with a80 was used as described (Novick, 1991). To construct the Daur mutation, the pKOR1-aur plasmid was used as described (Kavanaugh et al., 2007). Fluorescence measurements with S. aureus strains containing pDB59 were performed as previously described (Malone et al., 2007).
# (§3) Biofilm experiments. Microtiter plate biofilms were performed as described (Shanks et al., 2005) except that the plates were incubated at 37° C. with shaking at 200 rpm for 12 hours. For flow cell experiments, AIPs were generated using the DnaB intein method, and the AIP concentrations were determined as previously described (Malone et al., 2007). AIPs stocks (20 mM) were stored in 100 mM phosphate (pH 7), 50 mM NaC1, 1 mM tris(2-carboxyethyl) phosphine (TCEP) and were diluted into the biofilm flow medium to a final concentration of 50 nM. When required, […] of erythromycin and/or chloramphenicol were added to the flow cell media to maintain plasmids. […] Biofilm biomass was quantified with the COMSTAT program (Heydorn et al., 2000) and percent biomass detached was calculated by subtracting biomass present at day 4 from day 2. To quantitate the number of bacteria detaching from a biofilm, 1 ml of flow cell effluent was collected on ice at indicated time points. […]
# [7] = test system: SA502a (agr Type II) biofilm; test: Flow cell biofilm detachment, agr-II strain; type: cell-based, Staphylococcus aureus; details: 2-day old biofilm, 50 nM cognate AIP, over 48 hours
# Description: as §3, with “plasmids. The growth medium for flow cell biofilms consisted of 2% TSB plus 0.2% glucose unless otherwise indicated. Flow cell biofilm experiments and confocal microscopy were performed as previously described (Yarwood et al., 2004). Flow cells were inoculated with overnight cultures diluted 1:100 in sterile water and laminar flow ([…]) was initiated after one hour incubation.” for “plasmids.”
# [8] = wild-type SH1000 2-day flow cell biofilm, 50 nM AIP in growth media
# [9] = dual-labeled SH1000 (agr type I) biofilm, 50 nM AIP after two days of growth
compound,measurement,setting,value
O=C(O)CN(CCOCCOCCN(CC(=O)O)CC(=O)O)CC(=O)O [EGTA],effect on overall protease activity of effluent,[1],negligible effect
CO[C@H]1/C=C/O[C@@]2(C)Oc3c(C)c(O)c4c(O)c(c(/C=N/N5CCN(C)CC5)c(O)c4c3C2=O)NC(=O)/C(C)=C\C=C\[C@H](C)[C@H](O)[C@@H](C)[C@@H](O)[C@@H](C)[C@H](OC(C)=O)[C@@H]1C [rifampicin],decrease of viable cells,"[2]; cells detached by AIP-I, 10 mg/ml rifampicin",6 log
same,level of rifampicin killing of the biofilm biomass,"[2]; intact biofilm, 100 mg/ml rifampicin",about 2 log units
O[C@@H](CS)[C@@H](O)CS [DTT],effect on overall protease activity of effluent,[1],did not significantly change protease activity
"AIP-I: autoinducing peptide YSTCDFIM (SEQ ID NO: 1), thiolactone bridge between C-terminal residue and internal cysteine (ester (positions not given here); not fully specified (bridges))",concentration of bacteria in the effluent (CFU/ml),"[3]; 24-36 hours after AIP-I addition (50 nM), versus buffer",increased markedly
same,biofilm detachment observed by CLSM,"[3]; agr deletion mutant (SH1001) biofilm, AIP-I treatment",the mutant biofilm did not disperse
same,biofilm detachment observed by CLSM,[3]; [8],sloughed off the flow cell over a period of 1-2 days
same,biomass dispersed / detached,"[3]; wild-type SH1000, 50 nM AIP-I added to 2-day biofilm, within 48 hrs (day 2 vs day 4), COMSTAT",91.3 (64.3) %
same,biomass detached,"[3]; Δaur mutant biofilm, 50 nM AIP-I",54.6% (68.1)
same,biomass detached,"[3]; Δaur Δspl double mutant biofilm, 50 nM AIP-I",21.7% (66.6)
same,protease activity in biofilm effluent,[4]; agr mutant (SH1001) biofilm supplemented with AIP-I,very low levels of extracellular proteases
same,protease activity in biofilm effluent relative to biofilm without AIP,[4],approximately five-fold
same,biofilm detachment observed by CLSM,[5],robust detachment
same,induction of agr P3-GFP reporter,"[6]; agr deletion mutant (SH1001) biofilm with dual reporters, AIP-I",lack of GFP induction
same,induction of agr P3-GFP reporter,[6]; [9],strong induction of the GFP reporter
"O=S(=O)(F)Cc1ccccc1 [PMSF, reference compound]",effect on AIP-I mediated biofilm detachment,[3]; 10 mM PMSF in combination with AIP-I versus AIP-I alone,significantly reduced the level of detachment
same,biomass detached,"[3]; wild-type biofilm, 10 mM PMSF in combination with 50 nM AIP-I",48.8% (65.2)
same,effect on overall protease activity of effluent,[1],reduced overall protease activity to almost undetectable levels
"AIP-II: autoinducing peptide GVNACSSLF (SEQ ID NO: 2), thiolactone bridge between C-terminal residue and internal cysteine (ester (positions not given here); not fully specified (bridges))",biofilm detachment observed by CLSM,[3]; [8],the biofilm did not disperse
same,protease activity in biofilm effluent relative to biofilm without AIP,[4],reduced the level of proteolytic activity
same,biofilm detachment observed by CLSM,[7],robust detachment
same,induction of agr P3-GFP reporter,[6]; [9],failed to induce GFP expression

# — patent US20110152176A1, “AGR-MEDIATED INHIBITION AND DISPERSAL OF BIOFILMS” (priority 2008, published 2011)
